What was measured:
Format in all cases: in vivo
barnyardgrass [1] = assay: Test Example 4: herbicidal effect in foliage treatment; settings: dose 3.2 g/a, three weeks after the application
Procedure, shortened: (§1)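 Post-emergence foliar spray of water-diluted emulsifiable concentrate at predetermined doses (g per are), applied to plants 14 days after sowing in sterile diluvial soil (greenhouse, 25 to 30° C). Visual scale rating of effect taken 3 weeks later.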

velvetleaf [2] = assay: as above; settings: dose 3.2 g/a, three weeks after the application
Procedure, shortened: as §1

redroot pigweed [3] = assay: as above; settings: dose 3.2 g/a, three weeks after the application
Procedure, shortened: as §1

common lambsquater [4] = assay: as above; settings: dose 3.2 g/a, three weeks after the application
Procedure, shortened: as §1

common chickweed [5] = assay: as above; settings: dose 3.2 g/a, three weeks after the application
Procedure, shortened: as §1

Italian ryegrass [6] = assay: as above; settings: dose 3.2 g/a, three weeks after the application
Procedure, shortened: as §1

giant foxtail [7] = assay: as above; settings: dose 3.2 g/a, three weeks after the application
Procedure, shortened: as §1

common ragweed [8] = assay: as above; settings: dose 3.2 g/a, three weeks after the application
Procedure, shortened: as §1

water foxtail [9] = assay: as above; settings: dose 3.2 g/a, three weeks after the application
Procedure, shortened: as §1

wild oat [10] = assay: as above; settings: dose 3.2 g/a, three weeks after the application
Procedure, shortened: as §1

large crabgrass [11] = assay: as above; settings: dose 3.2 g/a, three weeks after the application
Procedure, shortened: as §1

beadstraw = assay: as above; settings: dose 3.2 g/a, three weeks after the application
Procedure, shortened: as §1

posumbu knotweed [12] = assay: as above; settings: dose 3.2 g/a, three weeks after the application
Procedure, shortened: as §1

transplanted rice = assay: Test Example 1: preemergence treatment under submerged conditions, effect on crop; settings: dose 2.52 g/a
Procedure, shortened: (§2)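 Submerged conditions, 4 cm water over alluvial soil. Weeds sown and 2.5-leaf rice transplanted; compound applied preemergence to water surface, doses in g per are. Greenhouse, 25 to 30° C., three weeks, then 0–5 mortality rating.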

barnyardgrass [13] = assay: Test Example 2: herbicidal effects during the vegetation period under submerged conditions; settings: treatment during the vegetation period under submerged conditions; dose 2.52 g/a
Procedure, shortened: (§3)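 Barnyardgrass, bulrush and ducksalad were co-sown in alluvial soil flooded to 4 cm and grown in a greenhouse at 25 to 30° C. At the 1- or 2-leaf stage, water-diluted emulsifiable concentrates went onto the water surface at set doses (g/a). Herbicidal effect was scored three weeks later on a graded scale.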

ducksalad [14] = assay: as above; settings: treatment during the vegetation period under submerged conditions; dose 2.52 g/a
Procedure, shortened: as §3

bulrush [15] = assay: as above; settings: treatment during the vegetation period under submerged conditions; dose 2.52 g/a
Procedure, shortened: as §3

barnyardgrass [16] = assay: Test Example 1: herbicidal effects in preemergence treatment under submerged conditions; settings: dose 2.52 g/a
Procedure, shortened: as §2

ducksalad [17] = assay: as above; settings: dose 2.52 g/a
Procedure, shortened: as §2

bulrush [18] = assay: as above; settings: dose 2.52 g/a
Procedure, shortened: as §2

barnyardgrass [19] = assay: Test Example 3: herbicidal effects in soil treatment; settings: dose 3.2 g/a
Procedure, shortened: (§4)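 Seeds were sown in sterilized diluvial soil and covered with about 1.5 cm of soil. Compounds, formulated as emulsifiable concentrates and diluted with water, were sprayed evenly over the soil surface at set doses in g/a. Herbicidal effect was scored on a rating scale three weeks later.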

velvetleaf [20] = assay: as above; settings: dose 3.2 g/a
Procedure, shortened: as §4

redroot pigweed [21] = assay: as above; settings: dose 3.2 g/a
Procedure, shortened: as §4

common lambsquater [22] = assay: as above; settings: dose 3.2 g/a
Procedure, shortened: as §4

common chickweed [23] = assay: as above; settings: dose 3.2 g/a
Procedure, shortened: as §4

Italian ryegrass [24] = assay: as above; settings: dose 3.2 g/a
Procedure, shortened: as §4

giant foxtail [25] = assay: as above; settings: dose 3.2 g/a
Procedure, shortened: as §4

common ragweed [26] = assay: as above; settings: dose 3.2 g/a
Procedure, shortened: as §4

water foxtail [27] = assay: as above; settings: dose 3.2 g/a
Procedure, shortened: as §4

wild oat [28] = assay: as above; settings: dose 3.2 g/a
Procedure, shortened: as §4

large crabgrass [29] = assay: as above; settings: dose 3.2 g/a
Procedure, shortened: as §4

posumbu knotweed [30] = assay: as above; settings: dose 3.2 g/a
Procedure, shortened: as §4

Row | SMILES | A: barnyardgrass, herbicidal effect (barnyardgrass [1]) | I: velvetleaf, herbicidal effect (velvetleaf [2]) | K: redroot pigweed, herbicidal effect (redroot pigweed [3]) | L: common lambsquater, herbicidal effect (common lambsquater [4]) | N: common chickweed, herbicidal effect (common chickweed [5]) | H: Italian ryegrass, herbicidal effect (Italian ryegrass [6]) | E: giant foxtail, herbicidal effect (giant foxtail [7]) | J: common ragweed, herbicidal effect (common ragweed [8]) | G: water foxtail, herbicidal effect (water foxtail [9]) | F: wild oat, herbicidal effect (wild oat [10]) | D: large crabgrass, herbicidal effect (large crabgrass [11]) | O: beadstraw, herbicidal effect (beadstraw) | M: posumbu knotweed, herbicidal effect (posumbu knotweed [12]) | a: transplanted rice, effect on crop (evaluation scale 0-5) (transplanted rice) | A: barnyardgrass, herbicidal effect (evaluation scale 0-5) (barnyardgrass [13]) | C: ducksalad, herbicidal effect (evaluation scale 0-5) (ducksalad [14]) | B: bulrush, herbicidal effect (evaluation scale 0-5) (bulrush [15]) | A: barnyardgrass, herbicidal effect (evaluation scale 0-5) (barnyardgrass [16]) | C: ducksalad, herbicidal effect (evaluation scale 0-5) (ducksalad [17]) | B: bulrush, herbicidal effect (evaluation scale 0-5) (bulrush [18]) | further results
1 | CCN1COCN(Cc2ccccc2N(C(=O)OCCCl)S(=O)(=O)C(F)(F)F)C1=O [IV-7] | 4 (mortality of at least 70% and less than 90%) | 4 (mortality of at least 70% and less than 90%) | 0 (mortality of less than 5% (almost ineffective)) | 4 (mortality of at least 70% and less than 90%) | 4 (mortality of at least 70% and less than 90%) | 3 (mortality of at least 40% and less than 70%) | 4 (mortality of at least 70% and less than 90%) | 3 (mortality of at least 40% and less than 70%) | 5 (mortality of 90% or above (nearly complete death)) | 0 (mortality of less than 5% (almost ineffective)) | 4 (mortality of at least 70% and less than 90%) | 3 (mortality of at least 40% and less than 70%) | 0 (mortality of less than 5% (almost ineffective)) | 0 (mortality of less than 5% (almost ineffective)) | 5 (mortality of 90% or above (nearly complete death)) | 5 (mortality of 90% or above (nearly complete death)) | 5 (mortality of 90% or above (nearly complete death)) | 5 (mortality of 90% or above (nearly complete death)) | 4 (mortality of at least 70% and less than 90%) | 5 (mortality of 90% or above (nearly complete death)) | herbicidal effect, A: barnyardgrass (barnyardgrass [19]): 5 (mortality of 90% or above (nearly complete death)); herbicidal effect, I: velvetleaf (velvetleaf [20]): 5 (mortality of 90% or above (nearly complete death)); herbicidal effect, K: redroot pigweed (redroot pigweed [21]): 1 (mortality of at least 5% and less than 20%); herbicidal effect, L: common lambsquater (common lambsquater [22]): 4 (mortality of at least 70% and less than 90%); herbicidal effect, N: common chickweed (common chickweed [23]): 4 (mortality of at least 70% and less than 90%); herbicidal effect, H: Italian ryegrass (Italian ryegrass [24]): 4 (mortality of at least 70% and less than 90%); herbicidal effect, E: giant foxtail (giant foxtail [25]): 3 (mortality of at least 40% and less than 70%); herbicidal effect, J: common ragweed (common ragweed [26]): 0 (mortality of less than 5% (almost ineffective)); herbicidal effect, G: water foxtail (water foxtail [27]): 5 (mortality of 90% or above (nearly complete death)); herbicidal effect, F: wild oat (wild oat [28]): 1 (mortality of at least 5% and less than 20%); herbicidal effect, D: large crabgrass (large crabgrass [29]): 5 (mortality of 90% or above (nearly complete death)); herbicidal effect, M: posumbu knotweed (posumbu knotweed [30]): 0 (mortality of less than 5% (almost ineffective))
2 | CCN1COCN(Cc2ccccc2N(C(=O)OCC(C)C)S(=O)(=O)C(F)(F)F)C1=O [IV-8] | 5 (mortality of 90% or above (nearly complete death)) | 3 (mortality of at least 40% and less than 70%) | 0 (mortality of less than 5% (almost ineffective)) | 0 (mortality of less than 5% (almost ineffective)) | 3 (mortality of at least 40% and less than 70%) | 0 (mortality of less than 5% (almost ineffective)) | 4 (mortality of at least 70% and less than 90%) | 3 (mortality of at least 40% and less than 70%) | 5 (mortality of 90% or above (nearly complete death)) | 0 (mortality of less than 5% (almost ineffective)) | 4 (mortality of at least 70% and less than 90%) | 3 (mortality of at least 40% and less than 70%) | 0 (mortality of less than 5% (almost ineffective)) | 0 (mortality of less than 5% (almost ineffective)) | 5 (mortality of 90% or above (nearly complete death)) | 4 (mortality of at least 70% and less than 90%) | 5 (mortality of 90% or above (nearly complete death)) | 5 (mortality of 90% or above (nearly complete death)) | 4 (mortality of at least 70% and less than 90%) | 5 (mortality of 90% or above (nearly complete death)) | herbicidal effect, A: barnyardgrass (barnyardgrass [19]): 4 (mortality of at least 70% and less than 90%); herbicidal effect, I: velvetleaf (velvetleaf [20]): 0 (mortality of less than 5% (almost ineffective)); herbicidal effect, K: redroot pigweed (redroot pigweed [21]): 0 (mortality of less than 5% (almost ineffective)); herbicidal effect, L: common lambsquater (common lambsquater [22]): 0 (mortality of less than 5% (almost ineffective)); herbicidal effect, N: common chickweed (common chickweed [23]): 0 (mortality of less than 5% (almost ineffective)); herbicidal effect, H: Italian ryegrass (Italian ryegrass [24]): 0 (mortality of less than 5% (almost ineffective)); herbicidal effect, E: giant foxtail (giant foxtail [25]): 1 (mortality of at least 5% and less than 20%); herbicidal effect, J: common ragweed (common ragweed [26]): 0 (mortality of less than 5% (almost ineffective)); herbicidal effect, G: water foxtail (water foxtail [27]): 5 (mortality of 90% or above (nearly complete death)); herbicidal effect, F: wild oat (wild oat [28]): 0 (mortality of less than 5% (almost ineffective)); herbicidal effect, D: large crabgrass (large crabgrass [29]): 1 (mortality of at least 5% and less than 20%); herbicidal effect, M: posumbu knotweed (posumbu knotweed [30]): 0 (mortality of less than 5% (almost ineffective))

From patent US20120029187A1, “HALOALKYLSULFONANILIDE DERIVATIVE” (Nissan Chemical Industries, Ltd., priority 2009, published 2012)
